Measured values from patent publication US12630555B2, “Substituted pyrrolo[1,2-a]quinoxalin-4(5H)-ones as CX3CR1 antagonists” (Drexel University, priority 2017, dated 2026).
Several values for one entry are separate records, joined by “and”; a condition that tells them apart may be missing. Equal entries are not always repeated. Where two headings read alike, the source gives them in different places. One block for each compound: values may come before it.

Tests used:
[1] = test system: MDA-231 cells; assay: Enumeration of CTCs in blood of tumor-bearing mice after mobilization with AMD-3100; assay type: in vivo; details: for mobilization of cancer cells (CTCs) into the blood: compound alone, tumor-bearing mice
Description: Blood was withdrawn by cardiac puncture. AMD-3100 was purchased from Selleckchem (S8030) dissolved in PBS at 1 mg/ml and at −20° C. before use. Tumor-bearing animals were anesthetized as described above and 200-250 μl of systemic blood was collected at the designated time points and transferred in K2EDTA tubes. Blood samples were placed on ice, diluted using a saline buffer (0.5% BSA, 2% EDTA in PBS) at a 1:8 ratio and then filtered through a 70 μm cell strainer immediately prior to achieve a label-free, microfluidic isolation of CTCs. For enumeration, the Captor® system (Clearbridge Biomedics, Singapore) was used, which allows visualization of individual CTCs trapped into crescent-shape microwells. Following complete flowing of the diluted blood, the CTChip® was transferred to the stage of an inverted fluorescent microscope and all trapped CTCs were counted. For the recovery of fully viable CTCs we used the ClearCell® FX system (Clearbridge Biomedics, Singapore), which employs the CTChip® FR1 to isolate cancer cells from blood cells based on size, deformability and inertia through a Dean Flow Fractionation process.
CTCs were lysed on the same microfluidic chip used for capture using an ice-cooled RNA lysis buffer (Norgen Bioteck Corp.). […] Genespecific primers and probe sets were purchased from Applied Biosystem.
Cancer cells in the blood are a dynamic pool that constantly fluctuates as cells enter circulation upon being dislodged from tumors, reseed additional sites or perish to anoikis if they fail to do so. This makes determining the time spent by cancer cells in the blood problematic. A major hurdle for these types of studies is the limited ability to monitor the timing of CTCs' entry into and egress from the blood during steady-state conditions. To circumvent these issues, cancer cells were acutely mobilized from tumors in the skeleton and soft-tissues in mice—above steady-state counts—and then thereafter the blood was sampled at specific intervals, reasoning that a time-dependent decline of the number of CTCs in the blood would result from cancer cells seeding back to tissues and dying in circulation. […] When spreading via the systemic circulation, cancer cells become susceptible to anoikis and extending the time spent in the blood increases the odds of incurring this form of apoptotic cell death.

[2] = test system: MDA-231 human breast cancer cells; assay: Model of tumor seeding: MDA-231 cells inoculated intracardially, DTCs in skeleton at 24 hours; details: for seeding of the skeleton by MDA-231 breast cancer cells: SCID mice, i.p. one hour before and 3 hours after inoculation (Compound XXII 10 mg/kg); for reduction in DTCs vs vehicle: 24 hours
Description: Female SCID mice (Taconic CB17-SCRF, ˜20 g body weight) were housed in a germfree barrier. At 6 weeks of age, mice were anesthetized with a mixture of ketamine (80 mg/kg) and xylazine (10 mg/kg). […] After intracardiac injection, the experimenter distributed each animal in unlabeled cages. Each cage was randomly assigned to different treatment groups by a second experimenter.
The dosing regimen was selected based on results from pharmacokinetic analyses. […] For the detection and enumeration of single cancer cells, the experimenter was not blinded but was assisted by the Nuance FX multiplex imaging software (see below). A fluorescence image was acquired for each tissue section analyzed, approximately 36 serial sections spanning the entire width of each knee-joint. The identification and enumeration of single cells was obtained by three different experimenters, including the Principal Investigator, and occasional discrepancies reconciled prior to compiling the final data.
Animal model of tumor seeding: SCID mice (Taconic CB17-SCRF, ˜25 g body weight) were housed in a germ-free barrier. At 6 weeks of age, mice were anesthetized with a mixture of ketamine (80 mg/kg) and xylazine (10 mg/kg). Tumor cells were delivered as a 100 μl suspension of serum-free culture medium by carefully accessing the left ventricle of the heart through the chest with an insulin syringe mounting a 30-gauge needle. […] Species- and class-matched irrelevant immunoglobulins (Rabbit IgG, 15 μg/ml, Jackson ImmunoResearch) or DMSO were used for the control groups. […] The dosing regimen was selected based on results from pharmacokinetic analyses. […] Blue-fluorescent beads, 10 μm-polystyrene in diameter (Invitrogen-Molecular Probes) were included in the injection medium and visualized by fluorescence microscopy to validate injection efficiency. Mice showing non-homogenous distribution of or lacking fluorescent beads in tissue sections of lungs and kidneys were removed from the study.
Soft-tissue organs were then placed either in 30% sucrose for cryoprotection or 1% paraformaldehyde for long-term storage. Bones were decalcified in 0.5M EDTA (Fisher Scientific) for 7 days followed by incubation in 30% sucrose. Tissues were maintained at 4° C. for all aforementioned steps and frozen in O.C.T. medium (Sakura Finetek) by placement over dry-ice chilled 2-methylbutane. Soft-tissue organs as well as knee joints (femora and tibiae) were processed to obtain serial frozen sections, 80 μm in thickness, using a Microm HM550 cryostat.
Fluorescent images of skeletal metastases were acquired using an Axio Scope.A1 microscope (Zeiss) connected to a Nuance Multispectral Imaging System (PerkinElmer). Digital images were analyzed and processed using the Nuance Software (v. 2.4). […]

[3] = test system: disseminated tumors; assay: Additional metastatic lesions after AMD-3100 mobilization; assay type: in vivo, mice
Description: Complementary studies were conducted in mice harboring experimental metastases as detected at one week post-grafting, and left either untreated or treated at the second and third week with AMD-3100, alone or in combination with Compound XXII (FIG. 10B). All lesions identified at the fifth week that had not been previously detected at the second week of the experiment were counted and compared among treatment groups.

[4] = in vivo; details: mouse, ip, 10 mg/kg
Description: (§2) Animals were then anesthetized as described above and 300 μl of blood samples were collected by cardiac puncture at the designated time points and transferred in K2EDTA tubes. Blood samples were placed on ice and tested after dilution.

[5] = Pharmacokinetic studies in mice, 10 mg/kg i.p.; details: 1 hour, vs 10 nM
Description: as §2

[6] = test system: MDA-231 cells; assay: Model of metastatic disease: one-week MDA-231 tumors, bioluminescence imaging; assay type: in vivo, mice
Description: (§1) One week after intracardiac injection, animals were randomly assigned to control and treated group and then imaged for tumors in the skeleton and soft-tissue organs. Vehicle or Compound XXII (10 mg/kg) were administered i.p. twice/day, for the entire duration of the study and animals were imaged weekly. Doxorubicin was purchased from LEK Laboratories (D5794), dissolved in PBS at 1 mg/ml and stored at −20° C. before use. All experiments were performed in agreement with NIH guidelines for the humane use of animals. The Drexel University College of Medicine Committee approved all protocols involving the use of animals for the Use and Care of Animals.
MDA-231 cells were stably transduced with the pLeGo-IG2-Luc2 vector. Prior to imaging, animals were injected i.p. with 150 mg/kg of D-luciferin (ViVoGlo, Promega) and anesthetized using 3% isoflurane. Animals were then transferred to the chamber of an IVIS Lumina XR (PerkinElmer) where they received 2% isoflurane throughout the image acquisition. Fifteen minutes after injection of the substrate, five-minute exposures of both dorsal and ventral views were obtained and quantification and analysis of bioluminescence was performed using the Living Image software.
To determine whether the pharmacologic targeting of CX3CR1 with Compound I would produce similar effects, mice were grafted with MDA-231 cells and at the first week post-IC injection were randomized and administered with either vehicle or 10 mg/Kg Compound I i.p. twice daily for three weeks, based on pharmacokinetics studies with this compound. Animals were imaged weekly before being euthanized, and treatment with Compound I led to a reduction in the number of tumor foci and overall tumor burden, at least as effectively as observed using CRISPRi (FIGS. 5A-5B).

[7] = test system: disseminated tumors; assay: Docetaxel alone or with Compound XXII in animals bearing disseminated tumors; assay type: in vivo
Description: Animals bearing disseminated tumors were treated with Docetaxel (2 mg/Kg, i.p., bis in 7 d.) either alone or in combination with Compound XXII (10 mg/Kg i.p., q12h) and compared to Compound XXII alone (FIGS. 11E-11G).

[8] = test system: MDA-231 cells; assay: Reseeding of CTCs to bone and lungs (GFP/CM-Dil double-labeled cells); assay type: in vivo, mice; details: AMD-3100 with Compound XXII 10 mg/Kg i.p. 1 hr prior and 3 hrs after; 12 or 24 hours
Description: The CellTracker™ CM-Dil (ThermoFisher Scientific) was diluted as 50 μg in 50 μl of DMSO to prepare a stock solution. Immediately before use, the stock solution was diluted with D-PBS to a 1 μM working solution. Cells were exposed to the working solution at 37° C. for 5 minutes and then at 4° C. for 15 minutes and then washed with PBS followed by F-12 cell culture medium.
Green-fluorescent MDA-231 cells were labeled with the cell-tracker CM-Dil, a widely validated red-fluorescent dye that, while being stably retained by non-dividing cells, is transferred to daughter cells upon mitosis and eventually becomes too diluted and undetectable in rapidly dividing cell populations. Based on these features, GFP/CM-Dil double-labeled cancer cells, when reseeding from established tumors would emit green fluorescence but lack red fluorescence, as the results of high proliferation during tumor growth and consequential dilution of the CM-Dil dye. Cancer cells that became dormant upon seeding different tissues following intracardiac injection would retain the CM-Dil dye, thereby emitting signals in both green and red fluorescent spectra (FIG. 9A). For these experiments, mice were grafted with double-labeled cancer cells in the left cardiac ventricle and allowed to develop tumors for two weeks. […]

[9] = test system: disseminated tumors; assay type: in vivo
Description: as §1
Mice harboring 1-week disseminated tumors were treated with the anthracycline antibiotic Doxorubicin (5 mg/Kg, i.p., q.w.), alone or in combination with Compound XXII (10 mg/Kg, i.p., b.i.d.) for the entire duration of the study. […] When the effects on both number of tumors and tumor burden were examined. […] It could be argued that this lack of effect shown by the chemotherapeutic drug was likely attributable to the short length of treatment, shorter than common protocols used in oncology practice. […] The acute toxicity of Doxorubicin precluded longer experiments. In order to test whether retaining cancer cells in the blood circulation by targeting CX3CR1 could extend their exposure to chemotherapeutics, the fluorescent properties of Doxorubicin were utilized and the red-spectrum emitted fluorescence of CTCs was collected at steady state from mice harboring disseminated tumors which were treated with Doxorubicin (alone, one hour after or three hours prior to administration of Compound XXII). CTCs were collected—independently of the type of treatment—four hours after Doxorubicin administration.

[10] = test system: 4T-1 murine breast cancer cells; assay: Model of tumor seeding: 4T-1 cells inoculated intracardially in Balb-C mice; assay type: in vivo; details: 10 mg/kg i.p. one hour before and 3 hours after inoculation
Description: Mice were sacrificed 24 hours post-injection.

[11] = single dose 5 mg/kg, mice with 3-week tumors
[12] = 10 mg/kg i.p. twice/day from one week post-inoculation, vs vehicle
[13] = Doxorubicin 5 mg/Kg q.w. in combination with Compound XXII 10 mg/Kg i.p. b.i.d.
[14] = Doxorubicin alone 5 mg/Kg i.p. q.w., two weeks

Structure (SMILES): c1cc(CN2CCCNCCNCCCNCC2)ccc1CN1CCCNCCNCCCNCC1 [AMD-3100, reference compound]
area under the curve of CTC counts vs time ([1]; AMD-3100 alone): 345 | mobilization of cancer cells (CTCs) into the blood [1]: rapid increase in the number of CTCs | time of peak number of CTCs post-treatment [1, 11]: 3 h | time of return of CTCs to steady-state counts [1, 11]: 48 h | seeding of the skeleton by MDA-231 breast cancer cells [2]: unaffected | number of additional lesions vs untreated animals ([3]; AMD-3100 alone at second and third week, lesions at fifth week): doubled number of additional lesions

Structure (SMILES): O=c1c2cccn2c2ccccc2n1CCCN1CCC(c2ccc(Cl)cc2)CC1 [Compound I, 5-(3-(4-(4-chlorophenyl)piperidin-1-yl)propyl)pyrrolo[1,2-a]quinoxalin-4(5H)-one]
concentration at 1 h ([4]; in vivo): 89 ng/mL and 210 nM | increase of blood level over lowest fully effective dose in vitro [5]: 20 fold | reduction in DTCs vs vehicle ([2]; 10 mg/Kg i.p. twice, one hour prior and three hours after IC inoculation): approximately 60% | reduction in DTCs vs vehicle ([2]; MDA-231 cells pre-incubated with 10 nM compound): approximately 60% | number of tumors (tumor foci) [6, 12]: reduction | overall tumor burden [6, 12]: reduction

concentration at 1 h ([4]; plasma): ~200 ng/mL | concentration at 6 h ([4]; plasma): 60 ng/mL
Structure (SMILES): O=C1CN(CCCn2c(=O)c3cccn3c3ccccc32)CCN1c1ccc(Cl)cc1 [Compound XXII, 5-(3-(4-(4-chlorophenyl)-3-oxopiperazin-1-yl)propyl)pyrrolo[1,2-a]quinoxalin-4(5H)-one]
overall efficacy for lowering total tumor burden ([7]; Compound XXII alone 10 mg/Kg i.p. q12h, each time point): comparable to the current standard of care, docetaxel alone | synergistic effects of combination ([7]; Docetaxel with Compound XXII, especially after 11 days of treatment): Synergistic effects were observed | number of reseeded cancer cells in lung and knee-joints [8]: dramatically reduced | area under the curve of CTC counts vs time ([1]; AMD-3100 combined with Compound XXII, then Compound XXII alone twice/day): 731 | percentage of apoptotic CTCs (Bax/Bcl-2 ratio) vs AMD-3100 alone ([1]; AMD-3100 in combination with Compound XXII, CTCs collected at 12 and 24 hours): increased the percentage of apoptotic CTCs | magnitude of increase in CTC counts vs AMD-3100 alone ([1]; Compound XXII co-administered with AMD-3100): more than two-fold higher | mobilization of cancer cells (CTCs) into the blood [1]: does not mobilize cancer cells back in the blood | number of CTCs positive for intracellular Doxorubicin ([9]; Compound XXII administered prior to Doxorubicin, CTCs collected four hours after Doxorubicin): significant increase | anti-tumor effect compared with Doxorubicin ([9]; Compound XXII alone 10 mg/Kg i.p. b.i.d., short period of time): superior anti-tumor effect than Doxorubicin | containment of tumor numbers [9, 13]: comparable to Compound XXII alone | mitigation of tumor burden [9, 13]: comparable to Compound XXII alone | synergistic effects of combination ([9]; Doxorubicin combined with Compound XXII): Synergistic effects were minimal | tumor burden after one week of treatment vs Compound XXII alone ([9]; Doxorubicin in combination with Compound XXII, 1 week): significantly superior effect | seeding of the skeleton by MDA-231 breast cancer cells [2]: severely impaired | AMD-3100-induced increase of additional lesions ([3]; AMD-3100 in combination with Compound XXII): ablated | overall tumor burden, % of the levels in the control group ([6]; 10 mg/kg i.p. twice/day from one week post-inoculation): below 50% | number of tumors (tumor foci) [6, 12]: strongly reduced | overall tumor burden [6, 12]: strongly reduced | overall survival ([6]; 10 mg/kg i.p. twice/day, Kaplan-Meier, vs vehicle): increase in overall survival | seeding of the skeleton by 4T-1 breast cancer cells [10]: severely impaired

Structure (SMILES): COc1cccc2c1C(=O)c1c(O)c3c(c(O)c1C2=O)C[C@@](O)(C(=O)CO)C[C@@H]3O[C@H]1C[C@H](N)[C@H](O)[C@H](C)O1 [Doxorubicin, reference compound]
number of tumors vs control [9, 14]: failed to show any significant effect | tumor burden vs control [9, 14]: failed to show any significant effect

Structure (SMILES): CC(=O)O[C@@]12CO[C@@H]1C[C@H](O)[C@@]1(C)C(=O)[C@H](O)C3=C(C)[C@@H](OC(=O)[C@H](O)[C@@H](NC(=O)OC(C)(C)C)c4ccccc4)C[C@@](O)([C@@H](OC(=O)c4ccccc4)[C@H]21)C3(C)C [docetaxel, reference compound]
tumor growth ([7]; docetaxel alone 2 mg/Kg i.p. bis in 7 d.): significantly suppressed tumor growth
